Several values for one entry are separate records, joined by “and”; a condition that tells them apart may be missing. Identical values can stand only once. Counter-ions that a name gives are not always drawn. Like-named read-outs stand apart in the source and are kept apart here.
What was measured:
[1] = tested on: Listeria monocytogenes ATCC 49594; assay: Broth microdilution assay
[2] = tested on: E. coli; assay: Test A MIC/MBC study; assay type: cell-based; details: for MBC: killing of ≥99.9% of the organisms; for MIC: tryptic soy broth, 37° C. overnight
Protocol: (§1) MIC/MBC studies were conducted according to a modified literature procedure (LaDow JE, et al. European Journal of Medicinal Chemistry. 46 (2011) 4219-4226). In brief, stock amphiphile solutions were made in 1 mL double-distilled water (0.1M C8 and C10; 0.02M C12), filter sterilized, and sonicated for five minutes. Stocks were then diluted 100× in tryptic soy broth and vortexed. This broth was serially diluted in fresh broth and 100 μL “doped” broth was transferred to 96-well microtiter plate. 10^6 Cfu/mL inoculums were prepared for E. coli and S. aureus. 100 μL inoculum was added to the wells. Plates were put on a shaker for 5 minutes to mix inoculum and broth. Plates were incubated at 37° C. overnight. Wells were visually analyzed the next day by growth or no growth. After MICs were determined, aliquots were taken from each well, plated, and incubated to determine the MBC values for each compound. MBC values were defined as killing of ≥99.9% of the organisms, which corresponds to a 3-log reduction.

[3] = tested on: S. aureus; assay: Test A MIC/MBC study; assay type: cell-based; details: Staphylococcus aureus; for MBC: killing of ≥99.9% of the organisms; for MIC: tryptic soy broth, 37° C. overnight
Protocol: as §1

[4] = tested on: Staphylococcus aureus Rosenbach ATCC 29213; assay: Broth microdilution assay
[5] = tested on: Escherichia coli ATCC 43895; assay: Broth microdilution assay
[6] = tested on: Pseudomonas aeruginosa ATCC 14213; assay: Broth microdilution assay
[7] = tested on: B. cepacia; assay: CLSI/NCCLS broth microdilution assay; assay type: cell-based; details: 18 hours
[8] = tested on: B. cereus; assay: CLSI/NCCLS broth microdilution assay; assay type: cell-based
[9] = tested on: A. baumannii; assay: CLSI/NCCLS broth microdilution assay; assay type: cell-based; details: 18 hours
[10] = tested on: S. epidermidis; assay: CLSI/NCCLS broth microdilution assay; assay type: cell-based
[11] = tested on: Y. pseudotuberculosis; assay type: cell-based; details: 18 hours
[12] = tested on: S. aureus; assay type: cell-based
[13] = tested on: K. pneumoniae; assay: CLSI/NCCLS broth microdilution assay; assay type: cell-based; details: 18 hours
[14] = tested on: B. neotomae; assay: CLSI/NCCLS broth microdilution assay; assay type: cell-based; details: 18 hours
[15] = tested on: L. pneumophilia; assay: CLSI/NCCLS broth microdilution assay; assay type: cell-based; details: 18 hours
[16] = tested on: Vero Cell
[17] = tested on: E. faecium; assay: CLSI/NCCLS broth microdilution assay; assay type: cell-based
[18] = tested on: P. aeruginosa; assay: CLSI/NCCLS broth microdilution assay; assay type: cell-based; details: 18 hours
[19] = L. monocytogenes (G+), TSB, 37° C., 24 h
[20] = Escherichia coli, read-out: MIC
[21] = S. aureus (G+), TSB, 37° C., 24 h
[22] = E. coli (G−), TSB, 37° C., 24 h
[23] = P. aeruginosa (G−), TSB, 37° C., 24 h
[24] = Listeria monocytogenes, ATCC49594, 24 h
[25] = Staphylococcus aureus, ATCC29213, 24 h
[26] = Escherichia coli, ATCC43895, 24 h
[27] = Pseudomonas aeruginosa, ATCC14213, 24 h

SMILES: CCCNC(=O)[C@H](OC(=O)CCCCCCCN)[C@@H](OC(=O)CCCCCCCN)C(=O)NCCC.Cl.Cl [Amphiphile B7]
- MIC [1, 19]: 500 µM
- MBC ([2]; Escherichia coli): 1000 µM and 588 µg/mL
- MIC [2, 20]: 1000 µM and 588 µg/mL
- MBC [3]: 500 µM and 294 µg/mL
- MIC [3]: 500 µM and 294 µg/mL
- MIC [4, 21]: 500 µM
- MIC [5, 22]: 1000 µM
- MIC [6, 23]: 1000 µM

SMILES: CCCNC(=O)[C@H](OC(=O)CCCCCCCCCN)[C@@H](OC(=O)CCCCCCCCCN)C(=O)NCCC.Cl.Cl [Amphiphile B9]
- MIC [1, 19]: 125 µM
- MBC ([2]; Escherichia coli): 500 µM and 322 µg/mL
- MIC [2, 20]: 500 µM and 322 µg/mL
- MBC [3]: 250 µM and 171 µg/mL
- MIC [3]: 125 µM and 80.5 µg/mL
- MIC [4, 21]: 125 µM
- MIC [5, 22]: 500 µM
- MIC [6, 23]: 250 µM

SMILES: CCCNC(=O)[C@H](OC(=O)CCCCCCCCCCCN)[C@@H](OC(=O)CCCCCCCCCCCN)C(=O)NCCC.Cl.Cl [Amphiphile B11]
- MIC [7]: >50 µg/mL
- MIC ([8]; B. cereus, 18 hours): 50 µg/mL
- MIC [9]: >50 µg/mL
- MIC ([10]; S. epidermidis, 18 hours): 25 µg/mL
- MIC [11]: >50 µg/mL
- MIC ([12]; S. aureus, 18 hours): 25 µg/mL
- MIC [1, 19]: 12.5 µM
- MIC [13]: >50 µg/mL
- MIC [14]: 25 µg/mL
- MBC ([2]; Escherichia coli): 400 µM and 280 µg/mL
- MIC [2, 20]: 400 µM and 280 µg/mL
- MBC [3]: 50 µM and 35 µg/mL
- MIC [3]: 25 µM and 17.5 µg/mL
- MIC [15]: >50 µg/mL
- MIC [4, 21]: 25 µM
- Vero Cell Cytotoxicity [16]: 50 µg/mL
- MIC [5, 22]: 100 µM
- MIC [6, 23]: 50 µM
- MIC ([17]; E. faecium, 18 hours): 25 µg/mL
- MIC [18]: >50 µg/mL

SMILES: CCCCCCCCC(=O)OC(C(=O)NCCN)C(OC(=O)CCCCCCCC)C(=O)NCCN.Cl.Cl (stereo not shown) [Amphiphile G7]
- MIC [7]: >50 µg/mL
- MIC ([8]; B. cereus, 18 hours): 6.25 µg/mL
- MIC [9]: >50 µg/mL
- MIC [10]: 12.5 µg/mL
- MIC [11]: 12.5 µg/mL
- MIC [1, 19]: 63 μM and 62.5* μM
- MIC [13]: 50 µg/mL
- MIC [14]: 3.125 µg/mL
- MIC [4, 21]: 63 μM and 62.5* μM
- Vero Cell Cytotoxicity [16]: >50 µg/mL
- MIC [5, 22]: 63 µM
- MIC [6, 23]: 125 µM
- MIC ([17]; E. faecium, 18 hours): 6.25 µg/mL
- MIC [18]: 25 µg/mL

SMILES: CCCCCCCCCCC(=O)OC(C(=O)NCCN)C(OC(=O)CCCCCCCCCC)C(=O)NCCN.Cl.Cl (stereo not shown) [Amphiphile G9]
- MIC [7]: >50 µg/mL
- MIC [8]: 6.25 µg/mL
- MIC [9]: >50 µg/mL
- MIC [10]: 6.25 µg/mL
- MIC [11]: 6.25 µg/mL
- MIC [12]: 6.25 µg/mL
- MIC [1, 19]: 250 µM
- MIC [13]: >50 µg/mL
- MIC [14]: 3.125 µg/mL
- MIC [15]: 25 µg/mL
- MIC [4, 21]: 500 µM
- Vero Cell Cytotoxicity [16]: 50 µg/mL
- MIC [5, 22]: 125 µM
- MIC [6, 23]: 250 µM
- MIC [17]: 6.25 µg/mL
- MIC [18]: >50 µg/mL

SMILES: CCCCCCCCCCCCCCCC[N+](C)(C)C [CTAB, Cetyltrimethylammonium bromide, reference compound]
- MIC [1, 24]: 8 µM
- MIC [4, 25]: 4 µM
- MIC [5, 26]: 32 µM
- MIC [6, 27]: 16 µM

SMILES: CCCCCCCCCCCCOS(=O)(=O)[O-].[Na+] [SDS, Sodium dodecyl sulfate, reference compound]
- MIC [1, 24]: 2000 µM
- MIC [4, 25]: 1000 µM
- MIC [5, 26]: > 2000 µM
- MIC [6, 27]: > 2000 µM

SMILES: [H]/N=C(/N)N[C@H]1[C@H](O)[C@@H](O)[C@H](O[C@@H]2O[C@@H](C)[C@](O)(C=O)[C@H]2O[C@@H]2O[C@@H](CO)[C@H](O)[C@@H](O)[C@@H]2NC)[C@@H](N/C(N)=N\[H])[C@@H]1O [Streptomycin Sulfate, reference compound]
- MBC ([2]; Escherichia coli): < 100 µg/mL
- MIC [2, 20]: < 100 µg/mL
- MIC [2]: <100 (<100) μg/mL
- MBC [3]: < 100 µg/mL
- MIC [3]: < 100 µg/mL

From patent US10556856B2, “Antibacterial agents” (Rutgers, The State University of New Jersey, priority 2014, dated 2020)
